The target in assay [1] is His tagged CRBN+DDB−DLS7+CXU4 (Homo sapiens (Human), UniProt Q96SW2). Kind of assay: IC50 Measurements for Binding to CRBN/DDBI (HTRF). The settings on record: Cy5-labeled Thalidomide probe, one hour incubation. (In general: In TR-FRET formats the signal depends on donor and acceptor labels being close together.)
The target of a further assay is IKZF2 (Homo sapiens (Human), UniProt Q96SW2+Q9UKS7). The assay is described as follows: IKZF2 HiBit Assay (HEK293T Flp-in-HiBiT cells). Type of assay: cell-based. The settings on record: HEK293T Flp-in-HiBiT cells, 6 hrs; for DC50: read-out: IKZF2 HiBit degradation DC50; for Dmax: HEK-293T, read-out: IKZF2 HiBit degradation Dmax. How it is done:
The HiBiT protein tagging system was applied to modified HEK293T Flp-in-HiBiT cells (polyclone) via a CRISPR/Cas9—mediated insertion of the HiBiT peptide tag (Promega™) to the N-terminus of the IKZF2 gene locus (Neon™ transfection system). Test and reference compounds are diluted from 1 mM at 3 folds for 11 doses. 25 nL of diluted compound is transferred to assay plates (Corning3570) using ECHO550, the final DMSO concentration @0.1%. The cells are seeded in 3000/[…]/well to compound plates. It is then incubated for 6 hrs in TC incubator. The amount of Nano-Glo® HiBiT lytic reagent needed to perform the desired experiments is calculated. The Nano-Glo® HiBiT lytic reagent is brought to room temperature. The LgBiT protein is diluted to 1:100 and the Nano-Glo® HiBiT lytic substrate is diluted to 1:50 into an appropriate volume of room temperature Nano-Glo® HiBiT lytic buffer. […] of the detection reagent (or without LgBiT) is dispensed to corresponding well according to the layout. The plate is then shaked for 10 mins at room temperature. After briefly centrifuge, the plate is read on Envision. At the indicated timepoints, the Nano-Glo® HiBiT lytic detection system (Promega™) was utilized for detecting bioluminescence of the HiBiT tag in treated cells: abundance of the tag is proportionate to the level of luminescence. Following normalization to DMSO, dose-response curves were plotted (GraphPad Prism) to determine the concentration points at which 50% of HiBiT-Helios degradation was achieved by each compound. The extent of degradation (range of luminescence) from the highest to lowest concentration points was calculated to determine the Dmax.

The target of another assay is IKZF1 (Homo sapiens (Human), UniProt Q13422+Q96SW2). Kind of assay: IKZF1 HiBit Assay (HEK293T Flp-in-HiBiT-IKZF1 stable cell line). The settings on record: HEK293T Flp-in-HiBiT-IKZF1 cells, 6 hrs; for DC50: read-out: IKZF1 HiBit degradation DC50; for Dmax: HEK-293T, read-out: IKZF1 HiBit degradation Dmax. In kind it is cell-based. How it is done:
The HiBiT protein tagging system was applied to modified Cells: modified HEK293T Flp-in-HiBiT-IKZF1 stable cell line (polyclone) via a CRISPR/Cas9—mediated insertion of the HiBiT peptide tag (Promega™) to the N-terminus of the IKZF2 gene locus (Neon™ transfection system).
Test compound from 10 mM and reference compound (CC-92480 from 50 mM and I-57 from 10 mM) are diluted at 3 folds for 11 doses. 25 nL of diluted compound is transferred to assay plates (Corning3571) using ECHO550, the final DMSO concentration @0.1%. The cells are seeded in 3000/[…]/well to compound plates. The plates are incubated for 6 hrs in TC incubator. The amount of Nano-Glo® HiBiT lytic reagent needed to perform the desired experiments is calculated. The Nano-Glo® HiBiT lytic reagent is brought to room temperature. The LgBiT protein is diluted to 1:100 and the Nano-Glo® HiBiT lytic substrate is brought to 1:50 into an appropriate volume of room temperature Nano-Glo® HiBiT lytic buffer. […] of the detection reagent (or without LgBiT) is dispensed to corresponding well according to the layout. The plate is shaked for 10 mins at room temperature. After briefly centrifuging, the plate is read on Envision. At the indicated timepoints, the Nano-Glo® HiBiT lytic detection system (Promega™) was utilized for detecting bioluminescence of the HiBiT tag in treated cells: abundance of the tag is proportionate to the level of luminescence. Following normalization to DMSO, dose-response curves were plotted (GraphPad Prism) to determine the concentration points at which 50% of HiBiT-Ikaros degradation was achieved by each compound. The extent of degradation (range of luminescence) from the highest to lowest concentration points was calculated to determine the Dm.

This note sets out measurements from patent US20250215012A1, “IKZF2 DEGRADERS AND USES THEREOF” (REGENTS OF THE UNIVERSITY OF MICHIGAN, priority 2022, published 2025).

Structures are written as SMILES. pIC50: −log10 of the molar value. Where only a bound is given, the exact number is not on record here.

His tagged CRBN+DDB−DLS7+CXU4, sequence (Q96SW2 whole entry): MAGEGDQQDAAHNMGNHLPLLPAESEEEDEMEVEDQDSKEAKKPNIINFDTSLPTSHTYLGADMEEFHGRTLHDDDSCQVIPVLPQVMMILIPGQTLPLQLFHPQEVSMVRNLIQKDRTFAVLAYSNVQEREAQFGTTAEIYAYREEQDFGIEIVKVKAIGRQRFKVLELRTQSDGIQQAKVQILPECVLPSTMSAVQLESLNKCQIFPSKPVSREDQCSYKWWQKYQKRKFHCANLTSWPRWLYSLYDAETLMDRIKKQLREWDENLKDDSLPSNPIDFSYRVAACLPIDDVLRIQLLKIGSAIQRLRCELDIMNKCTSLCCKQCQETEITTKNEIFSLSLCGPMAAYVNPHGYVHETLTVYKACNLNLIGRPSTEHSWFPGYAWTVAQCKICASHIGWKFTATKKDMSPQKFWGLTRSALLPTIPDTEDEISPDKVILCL
His tagged CRBN+DDB−DLS7+CXU4, sequence (Q16531 whole entry partner): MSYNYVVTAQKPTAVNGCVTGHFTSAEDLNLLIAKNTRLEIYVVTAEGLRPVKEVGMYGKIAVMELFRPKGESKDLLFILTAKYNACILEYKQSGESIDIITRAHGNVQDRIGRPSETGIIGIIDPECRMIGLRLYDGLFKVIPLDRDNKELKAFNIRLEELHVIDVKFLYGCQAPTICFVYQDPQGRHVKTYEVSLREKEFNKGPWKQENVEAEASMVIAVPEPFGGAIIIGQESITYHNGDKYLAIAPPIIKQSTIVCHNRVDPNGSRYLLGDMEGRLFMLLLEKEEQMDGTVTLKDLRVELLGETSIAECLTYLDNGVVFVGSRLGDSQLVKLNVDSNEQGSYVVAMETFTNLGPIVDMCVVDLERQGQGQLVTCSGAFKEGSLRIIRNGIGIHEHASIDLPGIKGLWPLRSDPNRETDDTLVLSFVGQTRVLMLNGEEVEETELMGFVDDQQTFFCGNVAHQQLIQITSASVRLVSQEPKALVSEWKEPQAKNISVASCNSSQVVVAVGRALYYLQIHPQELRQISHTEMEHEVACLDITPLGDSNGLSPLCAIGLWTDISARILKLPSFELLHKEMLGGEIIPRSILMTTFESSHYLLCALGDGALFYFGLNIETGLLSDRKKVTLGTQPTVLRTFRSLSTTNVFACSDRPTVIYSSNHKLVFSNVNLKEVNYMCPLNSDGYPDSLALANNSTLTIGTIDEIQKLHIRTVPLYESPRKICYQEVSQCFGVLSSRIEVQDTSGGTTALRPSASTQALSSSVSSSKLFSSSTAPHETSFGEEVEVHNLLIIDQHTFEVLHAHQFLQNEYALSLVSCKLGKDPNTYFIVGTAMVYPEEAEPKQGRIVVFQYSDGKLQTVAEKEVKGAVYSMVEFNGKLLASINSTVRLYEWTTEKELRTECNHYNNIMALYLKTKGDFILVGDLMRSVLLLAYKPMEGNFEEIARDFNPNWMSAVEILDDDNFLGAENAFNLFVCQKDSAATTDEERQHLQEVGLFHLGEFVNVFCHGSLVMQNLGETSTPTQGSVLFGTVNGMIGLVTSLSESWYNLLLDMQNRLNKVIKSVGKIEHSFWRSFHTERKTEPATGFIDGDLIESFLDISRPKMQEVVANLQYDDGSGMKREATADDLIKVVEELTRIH
IKZF2, sequence (Q9UKS7 whole entry): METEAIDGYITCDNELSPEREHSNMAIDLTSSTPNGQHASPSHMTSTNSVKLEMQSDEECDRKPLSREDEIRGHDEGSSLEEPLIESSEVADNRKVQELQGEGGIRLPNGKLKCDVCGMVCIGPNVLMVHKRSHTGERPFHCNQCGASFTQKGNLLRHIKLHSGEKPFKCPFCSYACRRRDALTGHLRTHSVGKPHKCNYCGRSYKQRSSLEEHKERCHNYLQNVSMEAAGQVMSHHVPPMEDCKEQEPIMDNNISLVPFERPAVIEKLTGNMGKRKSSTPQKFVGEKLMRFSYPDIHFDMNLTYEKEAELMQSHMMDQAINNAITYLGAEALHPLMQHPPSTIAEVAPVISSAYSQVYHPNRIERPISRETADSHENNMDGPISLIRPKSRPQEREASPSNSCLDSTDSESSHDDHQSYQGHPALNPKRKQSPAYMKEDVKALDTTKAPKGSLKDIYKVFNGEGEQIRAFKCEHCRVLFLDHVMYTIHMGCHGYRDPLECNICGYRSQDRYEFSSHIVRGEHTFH
IKZF2, sequence (Q96SW2 whole entry): as the sequence (Q96SW2 whole entry) above
IKZF2, sequence (Q16531 whole entry partner): as the sequence (Q16531 whole entry partner) above
IKZF1, sequence (Q13422 whole entry): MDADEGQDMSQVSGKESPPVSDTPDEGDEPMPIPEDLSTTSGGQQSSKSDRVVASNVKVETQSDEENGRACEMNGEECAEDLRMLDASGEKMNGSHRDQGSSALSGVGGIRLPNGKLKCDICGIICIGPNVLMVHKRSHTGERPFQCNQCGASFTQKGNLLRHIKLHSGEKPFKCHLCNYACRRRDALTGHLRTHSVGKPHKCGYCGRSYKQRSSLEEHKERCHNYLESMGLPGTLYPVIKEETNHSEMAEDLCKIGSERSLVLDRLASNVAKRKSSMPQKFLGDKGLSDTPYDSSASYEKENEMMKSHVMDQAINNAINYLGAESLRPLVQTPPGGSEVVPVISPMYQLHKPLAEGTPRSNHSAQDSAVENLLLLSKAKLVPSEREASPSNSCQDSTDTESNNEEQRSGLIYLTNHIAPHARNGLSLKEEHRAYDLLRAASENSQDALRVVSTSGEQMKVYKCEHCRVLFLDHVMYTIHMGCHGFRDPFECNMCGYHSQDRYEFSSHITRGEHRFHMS
IKZF1, sequence (Q96SW2 whole entry): as the sequence (Q96SW2 whole entry) above
IKZF1, sequence (Q16531 whole entry partner): as the sequence (Q16531 whole entry partner) above

Compound `O=C1CC[C@H](N2Cc3c(ccc4c3OCC43CCN(Cc4cnn(-c5ccc(Cl)cc5)c4C(F)(F)F)CC3)C2=O)C(=O)N1` [Compound B1, (S)-3-(1′-((1-(4-chlorophenyl)-5-(trifluoromethyl)-1H-pyrazol-4-yl)methyl)-6-oxo-6,8-dihydro-2H,7H-spiro[furo[2,3-e]isoindole-3,4′-piperidin]-7-yl) piperidine-2,6-dione] gave a pIC50 in assay [1] of 6.00 to 6.30. At IKZF2, the DC50 lay in the range of 1 to 10 nM and the greatest degradation seen (Dmax) was 40 to 60%. For the same compound, on IKZF1, the DC50 was 100 to 1000 nM and the Dmax is 20 to 40%.
For `O=C1CC[C@H](N2Cc3c(ccc4c3OCC43CCN(Cc4cc(-c5ccc(Cl)cc5)no4)CC3)C2=O)C(=O)N1` [Compound B2, (S)-3-(1′-((3-(4-chlorophenyl)isoxazol-5-yl)methyl)-6-oxo-6,8-dihydro-2H,7H-spiro[furo[2,3-e]isoindole-3,4′-piperidin]-7-yl)piperidine-2,6-dione], in that order: 5.30 to 6.00, 1 to 10 nM, 60 to 80%, 10 to 100 nM and 20 to 40%.
With `O=C1CC[C@H](N2Cc3c(ccc4c3OCC43CCN(Cc4cc(-c5ccc(Cl)cc5)ns4)CC3)C2=O)C(=O)N1` [Compound B3, (S)-3-(1′-((3-(4-chlorophenyl)isothiazol-5-yl)methyl)-6-oxo-6,8-dihydro-2H,7H-spiro[furo[2,3-e]isoindole-3,4′-piperidin]-7-yl)piperidine-2,6-dione], in assay [1], the pIC50 was more than 7.00. Also, the figures for the DC50 on IKZF2 and on IKZF1 were 10 to 100 nM and more than 1000 nM, respectively. Further, the Dmax at IKZF2 is 60 to 80%; on IKZF1 it was less than 20%.
For `O=C1CC[C@H](N2Cc3c(ccc4c3OCC43CCN(Cc4cn(-c5ccc(Cl)cc5)nc4Cl)CC3)C2=O)C(=O)N1` [Compound B4, (S)-3-(1′-((3-chloro-1-(4-chlorophenyl)-1H-pyrazol-4-yl)methyl)-6-oxo-6,8-dihydro-2H,7H-spiro[furo[2,3-e]isoindole-3,4′-piperidin]-7-yl)piperidine-2,6-dione], in that order: 6.00 to 6.30, 1 to 10 nM, more than 1000 nM, 60 to 80% and less than 20%.
The corresponding values for `O=C1CC[C@H](N2Cc3c(ccc4c3OCC43CCN(Cc4cn(-c5ccc(Cl)cc5)nc4C(F)(F)F)CC3)C2=O)C(=O)N1` [Compound B5, (S)-3-(1′-((1-(4-chlorophenyl)-3-(trifluoromethyl)-1H-pyrazol-4-yl)methyl)-6-oxo-6,8-dihydro-2H,7H-spiro[furo[2,3-e]isoindole-3,4′-piperidin]-7-yl)piperidine-2,6-dione] are 6.30 to 7.00, 1 to 10 nM, more than 1000 nM, 60 to 80% and less than 20%.
For `[2H]C([2H])(c1ccc2cn(C)nc2c1)N1CCC2(CC1)COc1c2ccc2c1CN([C@H]1CCC(=O)NC1=O)C2=O` [Compound B7, (S)-3-(1′-((2-methyl-2H-indazol-6-yl)methyl-d2)-6-oxo-6,8-dihydro-2H,7H-spiro[furo[2,3-e]isoindole-3,4′-piperidin]-7-yl)piperidine-2,6-dione], in that order: 6.30 to 7.00, 1 to 10 nM, more than 1000 nM, 60 to 80% and less than 20%.
Turning to `O=C1CCC(N2Cc3c(ccc4c3OCC43CCN(Cc4cccc5cn[nH]c45)CC3O)C2=O)C(=O)N1` (stereo not shown) [Compound B24, 3-(1′-((1H-indazol-7-yl)methyl)-3′-hydroxy-6-oxo-6,8-dihydro-2H,7H-spiro[furo[2,3-e]isoindole-3,4′-piperidin]-7-yl)piperidine-2,6-dione], on IKZF2, the DC50 was in the range of 10 to 100 nM and the Dmax lay in the range of 60 to 80%. For the same compound, at IKZF1, the DC50 was more than 1000 nM and the Dmax is less than 20%.
For the compound `O=C1CCC(N2Cc3c(ccc4c3OCC43CCN(Cc4ccccc4)CC3(F)F)C2=O)C(=O)N1` (stereo not shown) [Compound B25, 3-(1′-benzyl-3′,3′-difluoro-6-oxo-6,8-dihydro-2H,7H-spiro[furo[2,3-e]isoindole-3,4′-piperidin]-7-yl)piperidine-2,6-dione], at IKZF2, the 50% degradation concentration (DC50) was in the range of 1 to 10 nM and the Dmax was 60 to 80%. Moreover, at IKZF1, the DC50 lay in the range of 1 to 10 nM and the Dmax was in the range of 20 to 40%.
As to `O=C1CC[C@H](N2Cc3c(ccc4c3OCC43CCN(Cc4cnn(CC5CCS(=O)(=O)CC5)c4)CC3(F)F)C2=O)C(=O)N1` (stereo partly drawn) [Compound B47, (3S)-3-(1′-((1-((1,1-dioxidotetrahydro-2H-thiopyran-4-yl)methyl)-1H-pyrazol-4-yl)methyl)-3′,3′-difluoro-6-oxo-6,8-dihydro-2H,7H-spiro[furo[2,3-e]isoindole-3,4′-piperidin]-7-yl)piperidine-2,6-dione], at IKZF2, the 50% degradation concentration (DC50) is 10 to 100 nM and the Dmax was 60 to 80%. Besides, at IKZF1, the DC50 is more than 1000 nM and the Dmax was less than 20%.
`O=C1CC[C@H](N2Cc3c(ccc4c3OC[C@@]43CCN(Cc4cccc(-c5cnn(C6COC6)c5)c4)CC3(F)F)C2=O)C(=O)N1` [Compound B54, (S)-3-((R)-3′,3′-difluoro-1′-(3-(1-(oxetan-3-yl)-1H-pyrazol-4-yl)benzyl)-6-oxo-6,8-dihydro-2H,7H-spiro[furo[2,3-e]isoindole-3,4′-piperidin]-7-yl)piperidine-2,6-dione]: the DC50 on IKZF2 is 1 to 10 nM; on IKZF1, more than 1000 nM. Also, the values for the greatest degradation seen (Dmax) on IKZF2 and at IKZF1 were 60 to 80% and 20 to 40%, respectively.
For `O=C1CC[C@H](N2Cc3c(ccc4c3NCC43CCN(Cc4ccccc4)CC3)C2=O)C(=O)N1` [Compound B56, (S)-3-(1-benzyl-6′-oxo-1′,2′,6′,8′-tetrahydro-7′H-spiro[piperidine-4,3′-pyrrolo[3,4-g]indol]-7′-yl)piperidine-2,6-dione], in that order: 10 to 100 nM, more than 1000 nM, 40 to 60% and less than 20%.
The corresponding values for `Cn1cc(-c2cccc(CN3CCC4(CC3)CNc3c4ccc4c3CN([C@H]3CCC(=O)NC3=O)C4=O)c2)cn1` [Compound B57, (S)-3-(1-(3-(1-methyl-1H-pyrazol-4-yl)benzyl)-6′-oxo-1′,2′,6′,8′-tetrahydro-7′H-spiro[piperidine-4,3′-pyrrolo[3,4-g]indol]-7′-yl)piperidine-2,6-dione] are 10 to 100 nM, more than 1000 nM, 60 to 80% and less than 20%.
Turning to `N#Cc1ccc(-n2cc(CN3CCC4(CC3)CNc3c4ccc4c3CN([C@H]3CCC(=O)NC3=O)C4=O)cn2)cc1` [Compound B58, (S)-4-(4-((7′-(2,6-dioxopiperidin-3-yl)-6′-oxo-1′,6′,7′,8′-tetrahydro-2′H-spiro[piperidine-4,3′-pyrrolo[3,4-g]indol]-1-yl)methyl)-1H-pyrazol-1-yl)benzonitrile], at IKZF2, the DC50 is 1 to 10 nM and the Dmax was in the range of 40 to 60%. At IKZF1, the DC50 is more than 1000 nM and the Dmax is less than 20%.

The pIC50 is −log10 of the IC50, conventionally taken in molar units. As a reminder, the DC50 is the concentration at which degradation of the target reaches its halfway point. Usually Dmax stands for the greatest extent of degradation seen.
